Columns and labels:
[1] = target: Mitogen-activated protein kinase 1 (Homo sapiens, UniProt P28482); assay: Inhibition of ERK2 (unknown origin) using FITC-labeled substrate peptide assessed as phosphorylation
[2] = target: T1, Dual specificity mitogen-activated protein kinase kinase 7 (Homo sapiens, UniProt O14733); assay: Inhibition of MAP2K7 (unknown origin) using unphosphorylated GST-tagged JNK1 substrate protein assessed as phosphorylation by ELISA
T1 sequence (O14733 whole entry): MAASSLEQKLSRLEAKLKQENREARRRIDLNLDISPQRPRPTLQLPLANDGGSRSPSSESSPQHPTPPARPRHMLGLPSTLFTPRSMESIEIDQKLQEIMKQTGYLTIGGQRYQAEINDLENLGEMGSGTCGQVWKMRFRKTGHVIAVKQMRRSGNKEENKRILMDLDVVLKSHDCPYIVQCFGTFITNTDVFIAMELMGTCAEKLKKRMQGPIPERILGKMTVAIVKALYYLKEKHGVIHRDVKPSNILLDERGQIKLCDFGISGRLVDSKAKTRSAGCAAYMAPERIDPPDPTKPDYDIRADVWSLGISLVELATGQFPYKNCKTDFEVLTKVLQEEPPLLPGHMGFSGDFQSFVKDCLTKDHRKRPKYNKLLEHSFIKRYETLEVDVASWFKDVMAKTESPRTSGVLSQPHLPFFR

[3] = target: Dual specificity mitogen-activated protein kinase kinase 1 (Homo sapiens, UniProt Q02750); assay: Inhibition of MAP2K1 (unknown origin) using unphosphorylated GST-tagged ERK2 substrate protein assessed as phosphorylation by ELISA
Dual specificity mitogen-activated protein kinase kinase 1, sequence (Q02750 whole entry): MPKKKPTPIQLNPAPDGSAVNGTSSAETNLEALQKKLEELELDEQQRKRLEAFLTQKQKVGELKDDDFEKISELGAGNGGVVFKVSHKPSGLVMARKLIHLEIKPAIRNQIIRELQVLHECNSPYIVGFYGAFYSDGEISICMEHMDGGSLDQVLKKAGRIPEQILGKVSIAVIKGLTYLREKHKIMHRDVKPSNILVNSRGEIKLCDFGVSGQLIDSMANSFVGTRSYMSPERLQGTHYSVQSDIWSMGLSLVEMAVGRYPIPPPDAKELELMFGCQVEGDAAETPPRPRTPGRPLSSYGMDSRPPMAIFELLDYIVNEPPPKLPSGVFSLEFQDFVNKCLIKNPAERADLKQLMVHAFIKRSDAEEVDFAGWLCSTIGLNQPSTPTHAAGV

Mitogen-activated protein kinase 1, sequence (P28482 whole entry): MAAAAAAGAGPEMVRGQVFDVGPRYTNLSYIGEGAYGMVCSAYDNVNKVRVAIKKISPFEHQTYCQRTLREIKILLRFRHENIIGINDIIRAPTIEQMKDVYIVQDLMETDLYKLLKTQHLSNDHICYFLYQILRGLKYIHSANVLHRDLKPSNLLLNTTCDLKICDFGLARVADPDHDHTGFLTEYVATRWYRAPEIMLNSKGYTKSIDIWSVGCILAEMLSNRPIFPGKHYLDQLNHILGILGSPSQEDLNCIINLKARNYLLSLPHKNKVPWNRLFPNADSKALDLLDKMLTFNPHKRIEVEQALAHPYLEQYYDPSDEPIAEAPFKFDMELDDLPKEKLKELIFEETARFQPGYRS

## COc1cc(O)c2c(c1)/C=C/C[C@H](O)[C@H](O)C(=O)/C=C\C[C@H](C)OC2=O
[1]
  IC50: 6800 nM
[2]
  IC50: 1300 nM
[3]
  IC50: 80 nM
